Assay results taken from patent US12421207B2 (CMG Pharmaceutical Co., Ltd., priority 2022, dated 2025).
Like-named read-outs stand apart in the source and are kept apart here.

Key:
[1] = tested on: PC9/ER cells; test: Cell viability assay (CellTiter-Glo 2.0), erlotinib-resistant PC9/ER cells; type: cell-based; settings: Homo sapiens, PC-9/ER; Table 2; 72 h drug treatment, EGFR TKI resistant cells, combination with EGFR TKI; read-out: Relative cell viability; IC50 PC9ER
From the text: (§1) To explore c-MET and AXL mechanisms of EGFR TKI resistance, resistant cells of the EGFR TKI hypersensitive EGFR exon 19 mutant NSCLC cell line, HCC827 and PC9 were generated by exposing these cells to increasing concentrations of EGFR TKI for over 3 months.
(§2) Gefitinib-resistant cells were referred to as HCC827/GR. […] Osimertinib-resistant cells were referred to as HCC827/OR.

[2] = tested on: HCC827/ER cells; test: Cell viability assay (CellTiter-Glo 2.0), erlotinib-resistant HCC827/ER cells; type: cell-based, human; settings: Homo sapiens, HCC827ER, Table 2, 72 h drug treatment, EGFR TKI resistant cells, combination with EGFR TKI, read-out: Relative cell viability
From the text: as §1, §2

[3] = tested on: HCC827/GR cells; test: Cell viability assay (CellTiter-Glo 2.0), gefitinib-resistant HCC827/GR cells; type: cell-based, human; settings: Homo sapiens, read-out: Relative cell viability, IC50 HCC827GR
From the text: as §1
The human cell line HCC827 was purchased from the American Type Culture Collection (Manassas, VA), and the PC9 cell line was obtained from RIKEN Cell Bank (Ibaraki, Japan). […] Gefitinib-resistant cells were referred to as HCC827/GR. […] Osimertinib-resistant cells were referred to as HCC827/OR.
(§3) Cell viability assays were carried out by plating 1,000 cells per well of HCC827 or PC9 resistant cells, respectively, into white transparent-bottom 384-well plates. The cells were treated with each TKI across a 10-dose range from 1 nM to 10,000 nM. After 72 h of drug treatment, cell viability was measured using the CellTiter-Glo 2.0 assay (Promega, Madison, WI).
as §3

[4] = tested on: HCC827/OR cells; test: Cell viability assay (CellTiter-Glo 2.0), osimertinib-resistant HCC827/OR cells; type: cell-based, human; settings: Homo sapiens, HCC827; Table 2; 72 h drug treatment, EGFR TKI resistant cells, combination with EGFR TKI; read-out: Relative cell viability; IC50 HCC827OR
From the text: as §1, §2

[5] = HCC827, Table 2, 72 h drug treatment, EGFR TKI resistant cells, combination with EGFR TKI

Structure (SMILES)	IC50 [1] [nM]	IC50 [2] [nM]	IC50 [3, 5] [nM]	IC50 [4] [nM]	IC50 ([3]; HCC827, 72 h) [nM]
COCCN1CCN(C(=O)C#Cc2c(Oc3ccc(NC(=O)c4cn(C(C)C)c(=O)n(-c5ccc(F)cc5)c4=O)cc3F)ccnc2N)CC1 [Example 2, N-(4-(2-amino-3-(3-(4-(2-methoxyethyl)piperazin-1-yl)-3-oxoprop-1-ynyl)pyridin-4-yloxy)-3-fluorophenyl)-3-(4-fluorophenyl)-1-isopropyl-2,4-dioxo-1,2,3,4-teterahydropyrimidine-5-carboxamide]	< 10	< 10	< 10	< 10	
CC(C)n1cc(C(=O)Nc2ccc(Oc3ccnc(N)c3/C=C/C(=O)N3CCNCC3)c(F)c2)c(=O)n(-c2ccc(F)cc2)c1=O [Example 3, (E)-N-(4-(2-amino-3-(3-oxo-3-(piperazin-1-yl)prop-1-enyl)pyridin-4-yloxy)-3-fluorophenyl)-3-(4-fluorophenyl)-1-isopropyl-2,4-dioxo-1,2,3,4-tetrahydropyrimidine-5-carboxamide]	< 1000	< 100	< 100	< 100	
COCCN1CCN(C(=O)/C=C/c2c(Oc3ccc(NC(=O)c4cn(C(C)C)c(=O)n(-c5ccc(F)cc5)c4=O)cc3F)ccnc2N)CC1 [Example 4, (E)-N-(4-(2-amino-3-(3-(4-(2-methoxyethyl)piperazin-1-yl)-3-oxoprop-1-enyl)pyridin-4-yloxy)-3-fluorophenyl)-3-(4-fluorophenyl)-1-isopropyl-2,4-dioxo-1,2,3,4-tetrahydropyrimidine-5-carboxamide]	< 1000	< 10	< 10	< 10	
CC(C)n1cc(C(=O)Nc2ccc(Oc3ccnc(N)c3C#N)c(F)c2)c(=O)n(-c2ccc(F)cc2)c1=O [Example 5, N-(4-(2-amino-3-cyanopyridin-4-yloxy)-3-fluorophenyl)-3-(4-fluorophenyl)-1-isopropyl-2,4-dioxo-1,2,3,4-tetrahydropyrimidine-5-carboxamide]	< 1000	< 10	< 100	< 100	
CC(C)n1cc(C(=O)Nc2ccc(Oc3ccnc(N)c3Cl)c(F)c2)c(=O)n(-c2ccc(F)cc2)c1=O [Example 6, N-(4-(2-amino-3-chloropyridin-4-yloxy)-3-fluorophenyl)-3-(4-fluorophenyl)-1-isopropyl-2,4-dioxo-1,2,3,4-tetrahydropyrimidine-5-carboxamide]					< 100
CC(C)n1cc(C(=O)Nc2ccc(Oc3ccnc(N)c3C#CC(=O)N3CCOCC3)c(F)c2)c(=O)n(-c2ccc(F)cc2)c1=O [Example 14, N-(4-(2-amino-3-(3-morpholino-3-oxoprop-1-ynyl)pyridin-4-yloxy)-3-fluorophenyl)-3-(4-fluorophenyl)-1-isopropyl-2,4-dioxo-1,2,3,4-tetrahydropyrimidine-5-carboxamide]	< 10	< 10	< 100	< 10	
COCCN1CCC(C#Cc2c(Oc3ccc(NC(=O)c4cn(C(C)C)c(=O)n(-c5ccc(F)cc5)c4=O)cc3F)ccnc2N)CC1 [Example 16]	< 10	< 10	< 10	< 10	
COCCN1CCN(C(C)(C)C#Cc2c(Oc3ccc(NC(=O)c4cn(C(C)C)c(=O)n(-c5ccc(F)cc5)c4=O)cc3F)ccnc2N)CC1 [Example 20, N-(4-(2-amino-3-(3-(4-(2-methoxyethyl)piperazin-1-yl)-3-methylbut-1-ynyl)pyridin-4-yloxy)-3-fluorophenyl)-3-(4-fluorophenyl)-1-isopropyl-2,4-dioxo-1,2,3,4-tetrahydropyrimidine-5-carboxamide]	< 10	< 10	< 10	< 10	
COCCN1CCN(C(=O)CCc2c(Oc3ccc(NC(=O)c4cn(C(C)C)c(=O)n(-c5ccc(F)cc5)c4=O)cc3F)ccnc2N)CC1 [Example 21, N-(4-(2-amino-3-(3-(4-(2-methoxyethyl)piperazin-1-yl)-3-oxopropyl)pyridin-4-yloxy)-3-fluorophenyl)-3-(4-fluorophenyl)-1-isopropyl-2,4-dioxo-1,2,3,4-tetrahydropyrimidine-5-carboxamide]	< 1000	< 1000	< 100	< 1000	

Now from value to compound, other results behind:

IC50 [1] [nM]	IC50 [2] [nM]	IC50 [3, 5] [nM]	IC50 [4] [nM]	Structure (SMILES)	IC50 ([3]; HCC827, 72 h) [nM]
< 10	< 10	< 10	< 10	CC(C)n1cc(C(=O)Nc2ccc(Oc3ccnc(N)c3C#CC(=O)N3CCNCC3)c(F)c2)c(=O)n(-c2ccc(F)cc2)c1=O [Example 1, N-(4-(2-amino-3-(3-oxo-3-(piperazin-1-yl)prop-1-ynyl)pyridin-4-yloxy)-3-fluorophenyl)-3-(4-fluorophenyl)-1-isopropyl-2,4-dioxo-1,2,3,4-tetrahydropyrimidine-5-carboxamide]	
< 1000	< 10	< 10	< 10	CC(C)n1cc(C(=O)Nc2ccc(Oc3ccnc(N)c3-c3cnn(C)c3)c(F)c2)c(=O)n(-c2ccc(F)cc2)c1=O [Example 7, N-(4-(2-amino-3-(1-methyl-1H-pyrazol-4-yl)pyridin-4-yloxy)-3-fluoropehynl)-1-isopropyl-2,4-dioxo-1,2,3,4-tetrahydropyrimidine-5-carboxamide]	
> 10000	< 100	< 100	< 100	CC(C)n1cc(C(=O)Nc2ccc(Oc3ccnc(N)c3C#Cc3ccccn3)c(F)c2)c(=O)n(-c2ccc(F)cc2)c1=O [Example 9, N-(4-(2-amino-3-(pyridin-2-ylethnyl)pyridin-4-yloxy)-3-fluorophenyl)-3-(4-fluorophenyl)-1-isopropyl-2,4-dioxo-1,2,3,4-tetrahydropyrimidine-5-carboxamide]	
< 100	< 1000	< 1000	< 1000	CC(C)n1cc(C(=O)Nc2ccc(Oc3ccnc(N)c3-c3ccc(Oc4ccccc4)cc3)c(F)c2)c(=O)n(-c2ccc(F)cc2)c1=O [Example 10]	
< 10000	< 10000	< 10000	< 10000	Cc1noc(C)c1-c1c(Oc2ccc(NC(=O)c3cn(C(C)C)c(=O)n(-c4ccc(F)cc4)c3=O)cc2F)ccnc1N [Example 11]	
< 1000	< 100	< 100	< 10	CCCn1cc(-c2c(Oc3ccc(NC(=O)c4cn(C(C)C)c(=O)n(-c5ccc(F)cc5)c4=O)cc3F)ccnc2N)cn1 [Example 12, N-(4-(2-amino-3-(1-propyl-1H-pyrazol-4-yl)pyridine-4-yloxy)-3-fluorophenyl)-3-(4-fluorophenyl)-1-isopropyl-2,4-dioxo-1,2,3,4-tetrahydropyrimidine-5-carboxamide]	
< 10	< 10	< 10	< 10	CCCn1cc(C#Cc2c(Oc3ccc(NC(=O)c4cn(C(C)C)c(=O)n(-c5ccc(F)cc5)c4=O)cc3F)ccnc2N)cn1 [Example 13, N-(4-(2-amino-3-((1-propyl-1H-pyrazol-4-yl)ethynyl)pyridin-4-yloxy)-3-fluorophenyl)-3-(4-fluorophenyl)-1-isopropyl-2,4-dioxo-1,2,3,4-tetrahydropyrimidine-5-carboxamide]	
< 10	< 100	< 100	< 10	CC(C)n1cc(C(=O)Nc2ccc(Oc3ccnc(N)c3C#CC3CCNCC3)c(F)c2)c(=O)n(-c2ccc(F)cc2)c1=O [Example 15, N-(4-(2-amino-3-(piperidin-4-ylethynyl)pyridin-4-yloxy)-3-fluorophenyl)-3-(4-fluorophenyl)-1-isopropyl-2,4-dioxo-1,2,3,4-tetrahydropyrimidine-5-carboxamide]	
< 100	< 100	< 100	< 100	CC(C)n1cc(C(=O)Nc2ccc(Oc3ccnc(N)c3C#CCN3CCNCC3)c(F)c2)c(=O)n(-c2ccc(F)cc2)c1=O [Example 17]	
< 100	< 10	< 100	< 10	COCCN1CCN(CC#Cc2c(Oc3ccc(NC(=O)c4cn(C(C)C)c(=O)n(-c5ccc(F)cc5)c4=O)cc3F)ccnc2N)CC1 [Example 18, N-(4-(2-amino-3-(3-(4-(2-methoxyethyl)piperazin-1-yl)prop-1-ylny)pyridin-4-yloxy)-3-fluorophenyl)-3-(4-fluorophenyl)-1-isopropyl-2,4-dioxo-1,2,3,4-tetrahydropyrimidine-5-carboxamide]	
< 100	< 10	< 100	< 100	CC(C)n1cc(C(=O)Nc2ccc(Oc3ccnc(N)c3C#CC(C)(C)N3CCNCC3)c(F)c2)c(=O)n(-c2ccc(F)cc2)c1=O [Example 19, N-(4-(2-amino-3-(3-methyl-3-(piperazin-1-yl)but-1-ynyl)pyridin-4-yloxy)-3-fluorophenyl)-3-(4-fluorophenyl)-1-isopropyl-2,4-dioxo-1,2,3,4-tetrahydropyridmidine-5-carboxamide]	
